# Measured values taken from patent US20260373155A1, “TRANSDERMALLY- OR TOPICALLY-ADMINISTERED COMPOSITION COMPRISING THIENOPYRIDINE COMPOUND” (GY LIFE SCIENCES CO., LTD., priority 2022, published 2026).
# Key:
# [1] = Solution stability of the hydrochloride salt with solubilizer or thickener (days without precipitation); type: physicochemical; conditions: 0.3% hydrochloride salt, aqueous phase, room temperature
# Description: This experiment examined whether a solubilizer or thickener could maintain a stable solution (without solid precipitation due to self-aggregation) of the hydrochloride salt of the thienopyridine compound of Chemical Formula 1 in an aqueous phase at room temperature. Specifically, 0.3% of the hydrochloride salt was dissolved in a water-phase solution composed of water, PEG400, glycerol, propylene glycol, hexanediol, and polysorbate 60 (as per Table 3). It was heated at 80 °C with stirring for 10 minutes for complete dissolution, then cooled to room temperature. 1% (w/w) of urea or polyvinylpyrrolidone (PVP K-30) was tested as a solubilizer by being added to the solution.
# Additionally, 2% (w/w) of xanthan gum, carboxymethyl cellulose, or PEG-240/HDI copolymer bis-decyltetradeceth-20 ether was tested as a thickener. Various combinations were also tested. The day on which precipitation first appeared was noted by visual or microscopic observation. The maximum days with no precipitation was recorded. […] Confirmatory mass spectrometry and ^1H-NMR indicated the precipitate was the compound of Chemical Formula 1.
# [2] = Comparison of L-menthol with other known transdermal permeation enhancers (AUC∞ of the thienopyridine compound); type: in vivo; conditions: AUC∞ after transdermal administration, component replaced with water, mice, FIG. 3
# Description: Other reported transdermal permeation enhancers were tested to see how they affect the skin permeability of the thienopyridine compound.
# Variants of the Example 1 formulation were created by removing one of the following and replacing it with water: propylene glycol, glycerol, or urea. Each variant was administered transdermally to mice (n=3) as in Experimental Example 2. Blood samples were analyzed to obtain plasma concentration-time profiles and the resulting average AUC∞±SD. These were compared by bar chart (FIG. 3) with the Example 1 formulation (with L-menthol) and Comparative Example 1 (without L-menthol). The asterisk (*) indicates p<0.01 (t-test).
# [3] = Fowler A J et al. 2019; US 2019-0262323; cited from earlier work
# [4] = ultraviolet light; Korean Patent No. 10-1478302; cited from earlier work
# [5] = Transdermal potential: plasma pharmacokinetics via topical, intravenous and intradermal routes in rats; type: in vivo, SD rats; conditions: 5 mpk; for AUC(0-inf) / AUC(0-t) at 24 h / Cmax / Tmax / half-life: rat, 5 mg/kg, male SD rats, phosphate salt form, plasma
# Description: An experiment was conducted to evaluate the transdermal potential of the thienopyridine compound (API) using 7-week-old male SD rats. Specifically, the same 5 mpk dose of the thienopyridine compound was administered via three routes-transdermal (topical), intravenous (tail vein), and intradermal injections-simultaneously, following the compositions and methods shown in Table 1 (n=3 per group). The plasma concentration of the thienopyridine compound and pharmacokinetic parameters were then measured for each route.
# In more detail, in each formulation the thienopyridine compound was used in phosphate salt form (compound:phosphoric acid=1:2.5 equivalents) at a concentration of 0.3 wt % in the carrier solution. For the transdermal formulation, the thienopyridine compound was first dissolved in a carrier solution lacking 3% […]™ EG, and then 3% […]™ EG (Seppic, France) was added with stirring for 3 minutes to impart viscosity. Blood samples were collected via the carotid artery at 0 (negative control sample), 0.03, 0.16, 0.25, 0.5, 1, 2, 4, 6, and 24 hours post-administration, placed into heparinized tubes, and centrifuged (3,000 rpm, 10 minutes). Plasma (13.5 μl) was stored at −20 °C until analyzed by LC-MS/MS within a week. Plasma concentrations of the thienopyridine compound were determined by LC-MS/MS. Each 13.5 μl plasma sample was mixed with 60 μl of acetonitrile containing 1 μg/mL of an internal standard, vortexed, and centrifuged at 6,000 rpm for 15 minutes; 50 μl of the supernatant was then mixed with 50 μl of distilled water for LC-MS/MS analysis. The LC-MS/MS system was an Agilent 1200 Series HPLC (Agilent, Santa Clara, CA) coupled with an AP13200® triple-quadrupole mass spectrometer (Applied Biosystems-SCIEX, Concord, Canada). The mobile phase was 0.1% formic acid in water (A) and acetonitrile (B). Chromatographic separation was achieved on a reverse-phase Atlantis™ T3 column (100×2.1 mm, 3 μm; Waters, Milford, MA) at a flow rate of 0.25 ml/min under a gradient. The LOQ was 9.7 ng/ml, and the correlation coefficient (R) for calibration was 0.997.
# Pharmacokinetic parameters were determined by noncompartmental analysis using WinNonlin® (Pharsight, Mountain View, CA). The maximum plasma concentration (Cmax) was taken directly from the plasma concentration-time profile, and time to reach Cmax (Tmax) was recorded. The area under the concentration-time curve from time zero to the last time point (AUC0-24) was calculated by the trapezoidal rule […]. AUC∞ was calculated by summing AUC0-24 and AUC24-∞, the latter obtained by dividing the 24-hour plasma concentration by the terminal elimination rate.
# [6] = Ju Yong Song 2016 thesis; cited from earlier work
# [7] = test system: Src/DDR tyrosine kinase family; conditions: see U.S. Pat. No. 9,062,066; cited from earlier work
# [8] = Ju Yong Song 2016 thesis; cited from earlier work; remark: listed apart in the source
# [9] = Sun X et al. 2012; cited from earlier work
# [10] = topical or ocular, topical application
smiles,measurement,setting,value
Oc1cccc(Nc2ccnc3cc(-c4cccc(CN5CCOCC5)c4)sc23)c1,maximum days with no precipitation,"[1]; thickener 2% PEG-240/HDI copolymer bis-decyltetradeceth-20 ether, solubilizer 1% polyvinylpyrrolidone (k30)",>7 days
same,maximum days with no precipitation,"[1]; thickener 2% PEG-240/HDI copolymer bis-decyltetradeceth-20 ether, solubilizer 1% urea",6 days
same,maximum days with no precipitation,"[1]; thickener 2% PEG-240/HDI copolymer bis-decyltetradeceth-20 ether, solubilizer none",6 days
same,maximum days with no precipitation,"[1]; thickener 2% carboxymethyl cellulose, solubilizer 1% polyvinylpyrrolidone (k30)",1 days
same,maximum days with no precipitation,"[1]; thickener 2% carboxymethyl cellulose, solubilizer 1% urea",1 days
same,maximum days with no precipitation,"[1]; thickener 2% carboxymethyl cellulose, solubilizer none",1 days
same,maximum days with no precipitation,"[1]; thickener 2% xanthan gum, solubilizer 1% polyvinylpyrrolidone (k30)",1 days
same,maximum days with no precipitation,"[1]; thickener 2% xanthan gum, solubilizer 1% urea",1 days
same,maximum days with no precipitation,"[1]; thickener 2% xanthan gum, solubilizer none",1 days
same,maximum days with no precipitation,"[1]; thickener none, solubilizer 1% polyvinylpyrrolidone (k30)",5 days
same,maximum days with no precipitation,"[1]; thickener none, solubilizer 1% urea",1 days
same,maximum days with no precipitation,"[1]; thickener none, solubilizer none",1 days
OCC(O)CO [glycerol],effect on transdermal permeability of the thienopyridine compound,[2],virtually no effect
CC1CCC(C(C)C)C(O)C1 (stereo not drawn) [menthol],effect on transdermal permeability of the thienopyridine compound,[2],uniquely strong enhancing effect
CC(O)CO (stereo not drawn) [propylene glycol],effect on transdermal permeability of the thienopyridine compound,[2],virtually no effect
"Oc1cccc(Nc2ccnc3cc(-c4cccc(CN5CCOCC5)c4)sc23)c1 [thienopyridine compound, 3-[[2-[3-(4-morpholinylmethyl)phenyl]thieno[3,2-b]pyridin-7-yl]amino]phenol]",progression of degenerative brain diseases,[3],suppress the progression of degenerative brain diseases
same,"anti-aging activity, wrinkle formation",[4],suppresses wrinkle formation
same,AUC(0-inf),[5]; intradermal injection,446 ± 160 ng·h/mL
same,AUC(0-t) at 24 h,[5]; intradermal injection,315 ± 197 ng·h/mL
same,Cmax,[5]; intradermal injection,40.3 ± 15.7 ng/mL
same,Tmax,[5]; intradermal injection,0.65 ± 0.335 h
same,half-life,[5]; intradermal injection,8.32 ± 3.15 h
same,AUC(0-inf),[5]; intravenous (iv),619 ± 219 ng·h/mL
same,AUC(0-t) at 24 h,[5]; intravenous (iv),514 ± 222 ng·h/mL
same,half-life,[5]; intravenous (iv),2.74 ± 1.81 h
same,AUC(0-inf),[5]; [10],49.4 ± 37.7 ng·h/mL
same,AUC(0-t) at 24 h,[5]; [10],41.7 ± 8.84 ng·h/mL
same,Cmax,[5]; [10],10.4 ± 13.5 ng/mL
same,Tmax,[5]; [10],1.38 ± 1.75 h
same,half-life,[5]; [10],5.46 ± 2.29 h
same,transdermal absorption relative to intravenous or intradermal administration,"[5]; topical vs intravenous or intradermal, rats",about one-tenth
same,suppression of SLIGRL-NH2-induced pruritus,[6],effectively suppresses
same,inhibition of kinase activity,[7],strongly inhibits
same,suppression of histamine-induced pruritus,[8],suppresses histamine-induced pruritus
same,"anti-inflammatory and anti-scarring activities, repair of damaged skin tissue",[9],exhibits anti-inflammatory and anti-scarring activities and promotes the repair of damaged skin tissue
NC(N)=O [urea],effect on transdermal permeability of the thienopyridine compound,[2],virtually no effect
